Assay results as given in patent US8796245B2 (TetraPhase Pharmaceuticals, Inc., priority 2008, dated 2014).
≈ marks a conversion by molar mass, not a printed value.

Experiments:
Type in all cases: cell-based
[1] = tested on: S. aureus ATCC 29213 (SA101, MSSA); assay: Minimum inhibitory concentration assay, SA101; settings: Staphylococcus aureus; S. aureus ATCC 29213, MSSA control; read-out: MICs SA101
In short: (§1)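 Strains were passaged overnight twice, and isolated colonies were adjusted to 0.5 McFarland and then diluted 1:125 in MHB. Compound was serially diluted across the plate, inoculum was added, and plates were held overnight at 37° C. The endpoint is the lowest concentration without growth.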

[2] = tested on: S. aureus ATCC 13709 (SA100, MSSA, Smith strain); assay: Minimum inhibitory concentration assay, SA100; settings: Staphylococcus aureus; S. aureus ATCC 13709, MSSA Smith strain; read-out: MICs SA100
In short: as §1

[3] = tested on: S. aureus SA161 (tet resistant: tet(M) ribosomal protection); assay: Minimum inhibitory concentration assay, SA161; settings: Staphylococcus aureus, read-out: MICs SA161
In short: as §1

[4] = tested on: E. coli EC155 (tet resistant: tetA efflux); assay: microbe, parasite or virus in culture; settings: Escherichia coli; E. coli tet resistant: tetA (efflux); read-out: MICs EC155
In short: as §1

[5] = tested on: K. pneumoniae KP153 (tet resistant: tetA efflux); assay: microbe, parasite or virus in culture; settings: Klebsiella pneumoniae, read-out: MICs KP153
In short: as §1

[6] = tested on: S. aureus SA158 (tet resistant: tetK efflux); assay: microbe, parasite or virus in culture; settings: Staphylococcus aureus, read-out: MICs SA158
In short: as §1

[7] = tested on: E. faecalis ATCC 29212 (EF103); assay: Minimum inhibitory concentration assay, EF103; settings: Enterococcus faecalis, ATCC29212, read-out: MICs EF103
In short: as §1

[8] = tested on: E. faecalis EF159 (tet resistant: tetM); assay: Minimum inhibitory concentration assay, EF159; settings: Enterococcus faecalis, read-out: MICs EF159
In short: as §1

[9] = tested on: S. pneumoniae ATCC 49619 (SP106); assay: Minimum inhibitory concentration assay, SP106; settings: Streptococcus pneumoniae, ATCC49619; S. pneumoniae ATCC 49619, wt; read-out: MICs SP106
In short: as §1

[10] = tested on: S. pneumoniae SP160 (tet resistant: tet M); assay: Minimum inhibitory concentration assay, SP160; settings: Streptococcus pneumoniae, read-out: MICs SP160
In short: as §1

[11] = tested on: E. coli ATCC 25922 (EC107); assay: Minimum inhibitory concentration assay, EC107; settings: Escherichia coli, ATCC25922; E. coli ATCC 25922, wt; read-out: MICs EC107
In short: as §1

[12] = tested on: A. baumanii ATCC 19606 (AB110); assay: Minimum inhibitory concentration assay, AB110; settings: Acinetobacter baumannii, ATCC19606; A. baumanii ATCC 19606, wt; read-out: MICs AB110
In short: as §1

[13] = tested on: P. aeruginosa ATCC 27853 (PA111); assay: Minimum inhibitory concentration assay, PA111; settings: Pseudomonas aeruginosa, ATCC27853; P. aeruginosa ATCC 27853, wt; read-out: MICs PA111
In short: as §1

[14] = tested on: E. cloacae ATCC 13047 (EC108); assay: Minimum inhibitory concentration assay, EC108; settings: Enterobacter cloacae, ATCC13047; E. cloacae ATCC 13047, wt; read-out: MICs EC108
In short: as §1

[15] = tested on: K. pneumoniae ATCC 13883 (KP109); assay: Minimum inhibitory concentration assay, KP109; settings: Klebsiella pneumoniae, ATCC13883; K. pneumoniae ATCC 13883, wt; read-out: MICs KP109
In short: as §1

Row | Compound | MIC [1] [µg/mL] | MIC [2] [µg/mL] | MIC [3] [µg/mL] | MIC [4] [µg/mL] | MIC [5] [µg/mL] | MIC [6] [µg/mL] | MIC [7] [µg/mL] | MIC [8] [µg/mL] | MIC [9] [µg/mL] | MIC [10] [µg/mL] | MIC [11] [µg/mL] | MIC [12] [µg/mL] | MIC [13] [µg/mL] | MIC [14] [µg/mL] | MIC [15] [µg/mL]
1 | COC[C@H]1CCCN1CC(=O)Nc1cc(F)c2c(c1O)C(=O)C1=C(O)[C@]3(O)C(=O)C(C(N)=O)=C(O)[C@@H](N(C)C)[C@@H]3C[C@@H]1C2 [Compound 42] | 0.5 (≈ 0.83 µM) | 1 (≈ 1.66 µM) | 2 (≈ 3.32 µM) | 16 (≈ 26.6 µM) | 16 (≈ 26.6 µM) | 1 (≈ 1.66 µM) | 0.5 (≈ 0.83 µM) | 1 (≈ 1.66 µM) | 0.125 (≈ 0.207 µM) | 0.0625 (≈ 0.104 µM) | 4 (≈ 6.64 µM) | 0.5 (≈ 0.83 µM) | > 32 | 16 (≈ 26.6 µM) | 8 (≈ 13.3 µM)
2 | CN(C)[C@@H]1C(O)=C(C(N)=O)C(=O)[C@@]2(O)C(O)=C3C(=O)c4c(O)c(NC(=O)CN5CCCCC5)cc(F)c4C[C@H]3C[C@@H]12 [Compound 43] | 0.5 (≈ 0.873 µM) | 0.5 (≈ 0.873 µM) | 1 (≈ 1.75 µM) | 4 (≈ 6.99 µM) | 4 (≈ 6.99 µM) | 0.5 (≈ 0.873 µM) | 0.25 (≈ 0.437 µM) | 0.5 (≈ 0.873 µM) | ≤ 0.0156 | ≤ 0.0156 | 1 (≈ 1.75 µM) | 0.125 (≈ 0.218 µM) | 32 (≈ 55.9 µM) | 4 (≈ 6.99 µM) | 2 (≈ 3.49 µM)
3 | CN(C)[C@@H]1C(O)=C(C(N)=O)C(=O)[C@@]2(O)C(O)=C3C(=O)c4c(O)c(NC(=O)CN5CCOCC5)cc(F)c4C[C@H]3C[C@@H]12 [Compound 44] | 4 (≈ 6.96 µM) | 4 (≈ 6.96 µM) | 8 (≈ 13.9 µM) | > 32 | > 32 | 8 (≈ 13.9 µM) | 8 (≈ 13.9 µM) | 8 (≈ 13.9 µM) | 0.5 (≈ 0.87 µM) | 1 (≈ 1.74 µM) | 32 (≈ 55.7 µM) | 8 (≈ 13.9 µM) | > 32 | > 32 | > 32
4 | CN(C)[C@@H]1C(O)=C(C(N)=O)C(=O)[C@@]2(O)C(O)=C3C(=O)c4c(O)c(NC(=O)CN5CC6CCCC6C5)cc(F)c4C[C@H]3C[C@@H]12 (stereo partly drawn) [Compound 45] | 0.5 (≈ 0.835 µM) | 0.5 (≈ 0.835 µM) | 1 (≈ 1.67 µM) | 2 (≈ 3.34 µM) | 4 (≈ 6.68 µM) | 0.5 (≈ 0.835 µM) | 0.25 (≈ 0.418 µM) | 0.5 (≈ 0.835 µM) | 0.125 (≈ 0.209 µM) | 0.06 (≈ 0.1 µM) | 1 (≈ 1.67 µM) | 0.06 (≈ 0.1 µM) | > 32 | 4 (≈ 6.68 µM) | 2 (≈ 3.34 µM)
